Test results: ChEMBL document CHEMBL5154802, “Leveraging Structure-Based Drug Design to Identify Next-Generation MAT2A Inhibitors, Including Brain-Penetrant and Peripherally Efficacious Leads” (J Med Chem, 2022)
The source made the active and inactive calls. No cut-off for these calls is given here.

Tests used:
[1] = target: T1, S-adenosylmethionine synthase isoform type-2 (Homo sapiens, UniProt P31153); test: Inhibition of recombinant human MAT2A expressed in baculovirus infected Sf9 cells assessed as S-adenosyl methionine production using L-methionine as substrate preincubated for 60 mins followed by substrate addition and measured after 60 mins in presence of ATP
Target sequence in this assay (P31153 whole entry, canonical isoform): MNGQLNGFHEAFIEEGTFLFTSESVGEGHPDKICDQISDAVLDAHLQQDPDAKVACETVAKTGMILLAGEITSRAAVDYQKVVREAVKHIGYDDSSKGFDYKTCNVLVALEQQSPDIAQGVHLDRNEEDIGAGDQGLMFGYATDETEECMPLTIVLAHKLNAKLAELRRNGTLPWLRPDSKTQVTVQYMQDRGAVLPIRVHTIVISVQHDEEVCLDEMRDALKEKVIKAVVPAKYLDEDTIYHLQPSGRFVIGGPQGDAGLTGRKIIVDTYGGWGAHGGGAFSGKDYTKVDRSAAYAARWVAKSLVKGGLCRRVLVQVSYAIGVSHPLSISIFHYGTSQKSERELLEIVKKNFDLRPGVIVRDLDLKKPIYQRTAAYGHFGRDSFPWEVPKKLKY

[2] = target: T1, S-adenosylmethionine synthase isoform type-2; test: Inhibition of recombinant human MAT2A expressed in baculovirus infected Sf9 cells assessed as S-adenosyl methionine production using L-methionine as substrate preincubated for 60 mins followed by substrate addition and measured after 60 mins in presence of ATP relative to control
Target sequence in this assay (P31153 whole entry, looked up, canonical isoform): as the sequence (P31153 whole entry, canonical isoform) above

[3] = target: T1, S-adenosylmethionine synthase isoform type-2; test: Inhibition of […] in MTAP-null human HCT-116 cells after 72 hrs by LC-MS/MS analysis relative to control; type: cell-based; settings: HCT116-MTAP null
Target sequence in this assay (P31153 whole entry, looked up, canonical isoform): as the sequence (P31153 whole entry, canonical isoform) above

[4] = target: T1, S-adenosylmethionine synthase isoform type-2; test: Inhibition of […] in MTAP-null human HCT-116 cells after 72 hrs by LC-MS/MS analysis; type: cell-based, HCT116-MTAP null
Target sequence in this assay (P31153 whole entry, canonical isoform): as above

PXR (NR1I2) = target: T2, PXR (NR1I2) (Homo sapiens, UniProt O75469); test: Transactivation of human PXR transfected in HepG2 cells assessed as CYP450 induction by measuring fold activation at 10 uM by luciferase reporter gene assay; type: ADME, cell-based; settings: HepG2 cells transfected with human PXR, read-out: FC
T2 sequence (O75469 whole entry): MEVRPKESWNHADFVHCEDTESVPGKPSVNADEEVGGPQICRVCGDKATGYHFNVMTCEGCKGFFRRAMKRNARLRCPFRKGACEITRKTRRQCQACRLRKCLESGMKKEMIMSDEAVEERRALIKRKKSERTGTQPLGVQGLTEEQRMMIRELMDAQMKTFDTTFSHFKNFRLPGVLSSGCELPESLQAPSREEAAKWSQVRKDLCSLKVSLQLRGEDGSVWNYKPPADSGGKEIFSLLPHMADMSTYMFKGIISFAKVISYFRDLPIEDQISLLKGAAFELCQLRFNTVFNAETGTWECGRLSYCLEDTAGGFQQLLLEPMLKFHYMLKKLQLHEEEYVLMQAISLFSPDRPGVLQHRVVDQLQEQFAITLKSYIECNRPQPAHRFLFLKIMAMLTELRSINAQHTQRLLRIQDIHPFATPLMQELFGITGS

[5] = Ratio of drug concentration in brain to plasma of mouse at 10 mg/kg, po measured at 1 to 4 hrs post dose; type: ADME, organism-based; settings: brain and plasma, time 1-4 hrs
[6] = In vivo inhibition of MAT2A in human HCT116-MTAP null cells xenografted po dosed nu/nu mouse model assessed as plasma exposure required for reduction in tumor SAM level; type: functional
HCT116-MTAP null = test: Antitumor activity against human HCT116-MTAP null cells xenografted in nu/nu mouse assessed as inhibition of tumor […] at 10 to 30 mg/kg, po QD for 21 days; type: functional, organism-based; settings: dose 10-30 mg/kg, time 21.0 day
[7] = Inhibition of MAT2A in human HCT116-MTAP null cells xenografted po dosed nu/nu mouse model assessed as plasma exposure required for reduction in periphery SAM level; type: functional
KP-4 = test: Antitumor activity against human KP-4 cells xenografted in CB17-SCID mouse assessed as tumor growth inhibition […] at 30 to 60 mg/kg, po QD for 13 days; type: functional, organism-based; settings: dose 30-60 mg/kg, time 13.0 day

Row | SMILES | IC50 [1] | Imax [2] | Imax [3] | IC50 [4] | further results
1 | COc1ccc(N2Cc3cnc(NCC4CC4)nc3C3(CCN(Cc4cn[nH]c4)C3)C2=O)cc1 (configuration not stated) | 7830 nM | 60% | – | – | –
2 | COc1ccc(-n2cc3cnc(N(C)CC(F)(F)F)nc3c(-c3ccc(Br)cc3)c2=O)cc1 | 3310 nM | 71% | – | – | –
3 | COc1ccc(N2Cc3cnc(NCC4CC4)nc3C3(CCN(Cc4cscn4)C3)C2=O)cc1 (configuration not stated) | 610 nM | 62% | – | – | –
4 | COc1ccc(N2Cc3cnc(NCC4CC4)nc3C3(CCN(Cc4ccon4)C3)C2=O)cc1 (configuration not stated) | 530 nM | 50% | – | – | –
5 | Cn1cc2cc(-n3cc4ccc(OCC(F)(F)F)nc4c(-c4ccc(Cl)cc4)c3=O)ccc2n1 | – | – | 82% | 32 nM | –
6 | Cn1cc2cc(-n3cc4ccc(CCC(F)(F)F)nc4c(-c4ccc(Cl)cc4)c3=O)ccc2n1 | – | – | 76% | 101 nM | –
7 | COc1ccc(N2Cc3cnc(NCC4CC4)nc3C3(CCN(Cc4ccsc4)C3)C2=O)cc1 (configuration not stated) | 510 nM | 38% | – | – | –
8 | Cn1cc2cc(-n3cc4ccc(OCC(F)F)nc4c(-c4ccc(Cl)cc4)c3=O)ccc2n1 | – | – | 88% | 13 nM | fold induction at 10 µM (PXR (NR1I2)): 3.8
9 | O=c1c(-c2ccc(Br)cc2)c2nc(NCC(F)(F)F)ncc2cn1-c1ccc2ncccc2c1 | – | – | 84% | 46 nM | fold induction at 10 µM (PXR (NR1I2)): 5.3; Kp [5]: 0.1
10 | COc1ccc(-n2cc3cnc(NCC(F)(F)F)nc3c(-c3ccc(Cl)cc3)c2=O)cc1 | – | – | 83% | 113 nM | –
11 | Cc1nc(NCC2CC2)nc2c1COCC21CCN(Cc2ccccc2F)C1 (configuration not stated) | 7200 nM | 46% | – | – | –
12 | Cc1nc2ccc(-n3cc4cnc(NCC(F)(F)F)nc4c(-c4ccc(Cl)cc4)c3=O)cc2n1C | – | – | 80% | 21 nM | –
13 | Cn1cc2cc(-n3cc4cnc(NCC(F)(F)F)nc4c(-c4ccc(Cl)cc4)c3=O)ccc2n1 | – | – | 80% | 14 nM | fIC50 [6]: 1.8 nM; Activity (HCT116-MTAP null): Active; fIC50 [7]: 2 nM
14 | COc1ccc(N2Cc3cnc(NCC4CC4)nc3C3(CCN(Cc4cnc(N)s4)C3)C2=O)cc1 (configuration not stated) | 410 nM | 38% | – | – | –
15 | CCNc1ccc2cn(-c3ccc4nn(C)cc4c3)c(=O)c(-c3ccc(Cl)cc3)c2n1 | – | – | 81% | 10 nM | –
16 | CCNc1ncc2cn(-c3ccc(OC)cc3)c(=O)c(-c3ccc(Br)cc3)c2n1 | 34 nM | 91% | – | – | –
17 | Cn1cnc2ccc(-n3cc4cnc(NCC(F)(F)F)nc4c(-c4ccc(Cl)cc4)c3=O)cc21 | – | – | 80% | 31 nM | –
18 | COc1ccc(-n2cc3cnc(NCC4CC4)nc3c(-c3ccc(Br)cc3)c2=O)cc1 | 54 nM | 88% | – | – | –
19 | COc1ccc(N2Cc3cnc(NCC4CC4)nc3C3(CCN(Cc4cc[nH]c4)C3)C2=O)cc1 (configuration not stated) | 2010 nM | 34% | – | – | –
20 | CCOc1ccc2cn(-c3ccc4nn(C)cc4c3)c(=O)c(-c3ccc(Cl)cc3)c2n1 | – | – | 89% | 23 nM | fIC50 [6]: 9.8 nM
21 | COc1ccc(N2Cc3c(C)nc(NCC4CC4)nc3C3(CCN(Cc4ccccc4F)C3)C2=O)cc1 (configuration not stated) | 250 nM | 50% | – | – | –
22 | O=c1c(-c2ccc(Cl)cc2)c2nc(NCC(F)(F)F)ncc2cn1-c1ccc2ncccc2c1 | – | – | 83% | 79 nM | –
23 | CCCNc1ncc2cn(-c3ccc(OC)cc3)c(=O)c(-c3ccc(Br)cc3)c2n1 | 48 nM | 73% | – | – | –
24 | COc1ccc(N2Cc3cnc(NCC4CC4)nc3C3(CCN(Cc4ccccc4F)C3)C2=O)cc1 (configuration not stated) | 320 nM | 38% | – | – | –
25 | COc1ccc(-n2cc3cnc(NCC(F)(F)F)nc3c(-c3ccc(Br)cc3)c2=O)cc1 | 22 nM | 94% | 84% | 34 nM | fIC50 [6]: 10.2 nM; Activity (KP-4): Active
26 | COc1ccc(N2Cc3cnc(NCC4CC4)nc3C3(CCN(Cc4cc[nH]n4)C3)C2=O)cc1 (configuration not stated) | 690 nM | 88% | – | – | –
27 | Cn1cc2cc(-n3cc4ccc(NCC(F)(F)F)nc4c(-c4ccc(Cl)cc4)c3=O)ccc2n1 | – | – | 82% | 11 nM | –
28 | COc1ccc(-n2cc3cnc(NCCC(F)(F)F)nc3c(-c3ccc(Br)cc3)c2=O)cc1 | 325 nM | 69% | – | – | –
